Data set [1] concerns PC-3. The experiment in a line: Cytotoxicity against human PC3 cells by MTT assay. The class given is functional, cell-based. For orientation: Tetrazolium dyes change colour on reduction, which living cells bring about.
Data set [2] concerns MCF7. The data set can be described thus: Cytotoxicity against human MCF7 cells by MTT assay. The class given is functional, cell-based.
The test system of data set [3] is HCT-8. The data set can be described thus: Cytotoxicity against human HCT8 cells by MTT assay. The class given is functional, cell-based.
Data set [4] in a line: Chemical stability assessed as half life in PBS at pH 7.4 by HPLC. It counts as physicochemical.
In data set [5] the test system is Mus musculus. The data set can be described thus: Toxicity to BALB/c nu/nu mouse assessed as mortality at 20 mg/kg, ip q3d for 3 days. The class given is organism-based. The arrangement: dose 20 mg/kg, route intraperitoneal. As to conditions: in vivo, 72 h.
Data set [6] concerns Mus musculus. The data set can be described thus: Toxicity to BALB/c nu/nu mouse assessed as mortality at 10 mg/kg, ip q3d for 3 days. Also noted: dose 10 mg/kg, route intraperitoneal. The class given is organism-based. As to conditions: in vivo, 72 h.
The test system of data set [7] is HCT-8. The data set can be described thus: Antitumor activity against human HCT8 xenografted in BALB/c nu/nu mouse assessed as tumor inhibition rate at 10 mg/kg, ip q3d for 3 days. The class given is functional. As to conditions: HCT-8, ip, 72 h, route intraperitoneal. (In xenograft studies the graft and the host belong to different species.)
In data set [8] the test system is HCT-8. The data set can be described thus: Antitumor activity against human HCT8 xenografted in BALB/c nu/nu mouse assessed as change in body weight at 10 mg/kg, ip q3d for 3 days. The class given is functional. As to conditions: route intraperitoneal.
For data set [9], the system named is HCT-8. The data set can be described thus: Antitumor activity against human HCT8 xenografted in BALB/c nu/nu mouse assessed as change in body weight at 20 mg/kg, ip q3d for 3 days. The class given is functional. Particulars: route intraperitoneal.
Data set [10] has as its system HCT-8. The experiment in a line: Antitumor activity against human HCT8 xenografted in BALB/c nu/nu mouse assessed as tumor inhibition rate at 20 mg/kg, ip q3d for 3 days. Particulars: HCT-8, ip, 72 h, route intraperitoneal. The class given is functional.
Data set [11] concerns HCT-8. The experiment in a line: Antitumor activity against human HCT8 xenografted in BALB/c nu/nu mouse assessed as tumor inhibition rate at 5 mg/kg, ip q3d for 3 days. The class given is functional. Particulars: HCT-8, ip, 72 h, route intraperitoneal.
The test system of data set [12] is HCT-8. The experiment in a line: Antitumor activity against human HCT8 xenografted in BALB/c nu/nu mouse assessed as change in body weight at 5 mg/kg, ip q3d for 3 days. The class given is functional. Particulars: route intraperitoneal.
Data set [13] deals with Mus musculus. The experiment in a line: Toxicity to BALB/c nu/nu mouse assessed as mortality at 5 mg/kg, ip q3d for 3 days. The class given is organism-based. The arrangement: dose 5 mg/kg, route intraperitoneal. As to conditions: in vivo, 72 h.

Each structure is given as a SMILES string.

For the compound `CC[C@@]1(OC(=O)C[n+]2cccc(CO)c2)C(=O)OCc2c1cc1n(c2=O)Cc2cc3ccccc3nc2-1`, the IC50 was found to be 800 nM in data set [1], 2570 nM in [2] and 2090 nM in data set [3].

With `CC[C@@]1(OC(=O)Cn2cncn2)C(=O)OCc2c1cc1n(c2=O)Cc2cc3ccccc3nc2-1`, the IC50 was found to be 150 nM in data set [1], 690 nM in [2] and 740 nM in [3]. Moreover, in [4], the half-life was 45 h.

On to `CC[C@@]1(OC(=O)Cn2ccnc2)C(=O)OCc2c1cc1n(c2=O)Cc2cc3ccccc3nc2-1`, for which the IC50 came out at 210 nM in data set [1], 900 nM in data set [2] and 600 nM in data set [3]. In addition, the Activity result is “Non-toxic” in data set [5], “Non-toxic” in data set [6], 6% in data set [8] and 1% in data set [9]. The half-life in data set [4] is 24 h. Further, in data set [7], the inhibition in vivo at 10 mg/kg came out at 27.8%. Moreover, the inhibition in vivo at 20 mg/kg in data set [10] came to 46.2%.

For the compound `CC[C@@]1(OC(=O)C[n+]2cccc(C)c2)C(=O)OCc2c1cc1n(c2=O)Cc2cc3ccccc3nc2-1`, the IC50 in data set [1] was found to be 600 nM; in [2], 3760 nM; in [3] it was 3780 nM.

With `CC[C@@]1(OC(=O)C[n+]2cccc(C(=O)O)c2)C(=O)OCc2c1cc1n(c2=O)Cc2cc3ccccc3nc2-1`, the values for the IC50 in data set [1], in data set [2] and in [3] were 550 nM, 2120 nM and 760 nM, respectively.

Consider `CC[C@@]1(OC(=O)C(C)O)C(=O)OCc2c1cc1n(c2=O)Cc2cc3ccccc3nc2-1` (stereo partly drawn), for which the concentration for half-maximal inhibition (IC50) in data set [1] came to 500 nM; in [2], 560 nM; in data set [3] it was 820 nM.

`CC[C@@]1(OC(=O)C(C)n2ccnc2)C(=O)OCc2c1cc1n(c2=O)Cc2cc3ccccc3nc2-1` (stereo partly drawn): the values for the concentration for half-maximal inhibition (IC50) in data set [1], in data set [2] and in [3] were 380 nM, 110 nM and 590 nM, respectively. For the same compound, the half-life in data set [4] is 18 h.

Take `CC[C@@]1(OC(=O)COc2cc(C(F)(F)F)ncn2)C(=O)OCc2c1cc1n(c2=O)Cc2cc3ccccc3nc2-1`: the IC50 in data set [1] came out at 1340 nM; in [2] it was 1790 nM; in [3] it was 1510 nM. For the same compound, the Activity entry in data set [5] is on record as “Non-toxic”; in data set [6], “Non-toxic”; in data set [8], 36%; in data set [9] it was 12%. Besides, the half-life in data set [4] was 14 h. Further, in data set [7], the inhibition in vivo at 10 mg/kg worked out at 25.4%. Also, the inhibition in vivo at 20 mg/kg in [10] is 49.3%.

In the case of `CC[C@@]1(OC(=O)C[n+]2cccc(C(C)=O)c2)C(=O)OCc2c1cc1n(c2=O)Cc2cc3ccccc3nc2-1`, the IC50 in [1] was found to be 540 nM; in [2] it was 3450 nM; in data set [3] it was 2580 nM.

On to `CC[C@@]1(OC(=O)C(C)n2cncn2)C(=O)OCc2c1cc1n(c2=O)Cc2cc3ccccc3nc2-1` (stereo partly drawn), for which the IC50 stood at 440 nM in data set [1], 650 nM in [2] and 510 nM in [3]. In [4], the half-life is 14 h.

On to `CC[C@@]1(OC(=O)CO)C(=O)OCc2c1cc1n(c2=O)Cc2cc3ccccc3nc2-1`, for which the half-maximal inhibitory concentration (IC50) in data set [1] came out at 30 nM; in data set [2] it was 10400 nM; in [3], 3000 nM. In addition, the half-life in [4] is over 48 h.

In the case of `CC[C@@]1(OC(=O)Cn2ccnn2)C(=O)OCc2c1cc1n(c2=O)Cc2cc3ccccc3nc2-1`, the IC50 in [1] stood at 160 nM; in data set [2], 1200 nM; in data set [3], 380 nM. In addition, the half-life in data set [4] was 24 h.

Consider `CC[C@@]1(OC(=O)Cn2cccn2)C(=O)OCc2c1cc1n(c2=O)Cc2cc3ccccc3nc2-1`, for which the results for the IC50 in data set [1], in data set [2] and in [3] were 160 nM, 120 nM and 610 nM, respectively. The Activity entry is listed as “Non-toxic” in data set [5], “Non-toxic” in data set [6], 7% in [8] and 8% in data set [9]. In addition, the half-life in data set [4] was over 48 h. Also, in [7], the inhibition in vivo at 10 mg/kg was 35.3%. In addition, in data set [10], the inhibition in vivo at 20 mg/kg was 75.6%.

Consider `CC[C@@]1(OC(=O)C[n+]2cccc(O)c2)C(=O)OCc2c1cc1n(c2=O)Cc2cc3ccccc3nc2-1`, for which the concentration for half-maximal inhibition (IC50) in data set [1] is 110 nM; in data set [2], 3800 nM; in [3] it was 2430 nM.

As to `CC[C@@]1(O)C(=O)OCc2c1cc1n(c2=O)Cc2cc3c(CN(C)C)c(O)ccc3nc2-1` [TOPOTECAN], the IC50 is 3990 nM in data set [1], 5550 nM in data set [2] and 3660 nM in data set [3]. For the same compound, the inhibition in vivo at 10 mg/kg in data set [7] was 92.5%. The inhibition in vivo at 5 mg/kg in [11] stood at 62%. Also, the Activity was -29% in data set [8], -3% in data set [12] and “Non-toxic” in data set [13].

Turning to `CC[C@@]1(OC(=O)C(C)n2ccnn2)C(=O)OCc2c1cc1n(c2=O)Cc2cc3ccccc3nc2-1` (stereo partly drawn), the IC50 in data set [1] was found to be 590 nM; in [2] it was 160 nM; in [3], 480 nM. Also, the half-life in [4] was 13 h.

With `CC[C@@]1(OC(=O)C(C)Oc2cc(C(F)(F)F)ncn2)C(=O)OCc2c1cc1n(c2=O)Cc2cc3ccccc3nc2-1` (stereo partly drawn), the figures for the IC50 in [1], in data set [2] and in data set [3] were 320 nM, 270 nM and 1110 nM, respectively. The half-life in data set [4] is 9 h.

As for `CC[C@@]1(OC(=O)C(C)n2cccn2)C(=O)OCc2c1cc1n(c2=O)Cc2cc3ccccc3nc2-1` (stereo partly drawn), the IC50 is 130 nM in data set [1], 810 nM in data set [2] and 230 nM in data set [3]. Further, the Activity result in [6] is “Non-toxic”; in data set [8], -2%; in data set [9], -5%. Also, in [4], the half-life was over 48 h. In data set [7], the inhibition in vivo at 10 mg/kg is 77.1%. The inhibition in vivo at 20 mg/kg in data set [10] is 92.9%.

What is called IC50 is the midpoint of a concentration-inhibition curve. For orientation: half-life means how long it takes for the measured level to halve. By inhibition in vivo is commonly meant the share of the control response that was lost under treatment.
